Columns and labels:
CDK1/cyclinB = target: T1, CDK1/cyclinB (Homo sapiens, UniProt P06493); experiment: CDK1/cyclinB kinase assay, IMAP fluorescence polarization; assay type: biochemical; details: read-out: CDK1 IC50
T1 construct: purchased Millipore
Procedure, shortened: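 IMAP fluorescence polarization assay on recombinant purified enzyme, compounds at final 1% DMSO. Reaction run 2 h at room temperature, stopped, held 1 h more before reading polarization.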

CDK5 = CDK5 (Homo sapiens, UniProt Q00535); experiment: CDK5 kinase assay (Table F); assay type: biochemical
[1] = tested on: RNA Polymerase II CTD Serine2 Phosphorylation; experiment: H5 (Ser2) Ab High Content Screen: RNA Polymerase II CTD Serine2 Phosphorylation Assay in Hep3B cells; assay type: cell-based; details: Homo sapiens, 2 hours with compound, H5 antibody staining
Method: H5 (also referred as Ser2) Ab High Content Screen: RNA Polymerase II CTD Serine2 Phosphorylation Assay
1. Cells are plated into 384 well plates: 30 μl of Hep3B cells (4,000 cells/30 μl) in DMEM with 3% FBS are plated into wells of a tissue culture treated clear bottomed 384 well plate. Cells are allowed to adhere during an overnight incubation.
2. Cells are treated with compounds for two hours: 10 μl of DMEM with 3% FBS is added to each well with a final concentration of DMSO equal to 1%. Cells are incubated with compounds for 2 hours.
3. Cells are fixed and permeabilized. Cells are washed with 30 mM HEPES pH=7.3 then fixed in 4% paraformaldehyde in 30 mM HEPES pH=7.3 for one hour at room temperature. The fix is removed by washing the cells with Tris buffered saline (TBS) and the cells are permeabilized by incubation in TBS with 0.5% triton X-100 for 30 minutes at room temperature. Triton is removed by washing the cells with TBS.
4. […] Incubate primary H5 Ab (1/250 ) overnight at 4 degrees in TBS with 1% BSA and 0.1% Tween-20. The next day wash cells with TBS. […] Wash cells with PBS.
5. Measure staining using the In-cell Analyzer system from GE Healthcare.

CDK4 = CDK4 (Homo sapiens, UniProt P11802); experiment: CDK4 kinase assay (Table F); assay type: biochemical
CDK9/cyclinT1 = target: T2, CDK9/cyclinT1 (Homo sapiens, UniProt P50750); experiment: CDK9/cyclinT1 kinase assay, IMAP fluorescence polarization; assay type: biochemical
T2 construct: purchased Millipore
Procedure, shortened: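 Recombinant purified enzyme complexes assayed by IMAP fluorescence polarization with 1% final DMSO, 2 h at room temperature; stopped with 1× Developer buffer (85% A/15% B) plus IMAP beads 1/400, then 1 h further at room temperature. IC50 from normalized mP versus log compound concentration.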

CDK2/cyclinA = target: T3, CDK2/cyclinA (Homo sapiens, UniProt P24941); experiment: CDK2/cyclinA kinase assay, IMAP fluorescence polarization; assay type: biochemical
T3 construct: purchased Millipore
Procedure, shortened: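 Recombinant purified enzyme reactions run 2 hours at room temperature with 1% DMSO final. Stopped with 1× Developer buffer (100% A) and IMAP beads 1/400, then 1 hour more before fluorescence polarization read. IC50 from mP values versus log concentration.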

CDK7/cyclinH/MAT1 = target: T4, CDK7/cyclinH/MAT1 (Homo sapiens, UniProt P50613); experiment: CDK7/cyclinH/Mat1 kinase assay, IMAP fluorescence polarization; assay type: biochemical
T4 construct: purchased Millipore
Method: Kinase assays were performed on recombinant purified enzymes using the non-radioactive IMAP fluorescence polarization assay format.
Compound stocks were prepared and diluted in DMSO and were added to kinase reactions at a 1/100 dilution for a final concentration of 1% DMSO. The components were added together to final concentrations listed in the tables below and incubated for two hours at room temperature.
The reactions were stopped by addition of stop solution.
CDK9/CDK1/CDK7: final stop concentration is 1× Developer buffer (85% A/15% B), IMAP beads 1/400
The samples were allowed to incubate for one more hour at room temperature and then the fluorescence polarization was measured. The plate normalized millipolarization (mP) values were plotted against the log of compound concentration for each compound and IC50 values were calculated using the spotfire IC50 calculator and confirmed by visual analysis.

Chain of CDK4 (P11802 whole entry, species assumed): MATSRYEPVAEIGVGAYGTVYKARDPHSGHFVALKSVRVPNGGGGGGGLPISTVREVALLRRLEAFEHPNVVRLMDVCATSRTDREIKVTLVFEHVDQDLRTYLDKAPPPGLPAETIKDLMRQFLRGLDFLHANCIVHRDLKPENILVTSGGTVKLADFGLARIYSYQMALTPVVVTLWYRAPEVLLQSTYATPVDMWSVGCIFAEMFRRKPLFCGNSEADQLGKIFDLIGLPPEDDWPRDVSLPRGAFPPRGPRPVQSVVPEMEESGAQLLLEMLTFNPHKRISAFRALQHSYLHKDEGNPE
Chain of CDK4 (P24385 whole entry partner, species assumed): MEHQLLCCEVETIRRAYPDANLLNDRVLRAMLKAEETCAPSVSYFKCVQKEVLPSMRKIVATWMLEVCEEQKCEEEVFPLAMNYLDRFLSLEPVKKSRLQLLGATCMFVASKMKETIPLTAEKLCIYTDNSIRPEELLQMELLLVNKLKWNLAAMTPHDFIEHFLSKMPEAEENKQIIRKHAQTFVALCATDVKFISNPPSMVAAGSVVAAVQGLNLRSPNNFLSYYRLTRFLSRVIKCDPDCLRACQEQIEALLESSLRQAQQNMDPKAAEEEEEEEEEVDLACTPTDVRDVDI
T2 sequence (P50750 whole entry): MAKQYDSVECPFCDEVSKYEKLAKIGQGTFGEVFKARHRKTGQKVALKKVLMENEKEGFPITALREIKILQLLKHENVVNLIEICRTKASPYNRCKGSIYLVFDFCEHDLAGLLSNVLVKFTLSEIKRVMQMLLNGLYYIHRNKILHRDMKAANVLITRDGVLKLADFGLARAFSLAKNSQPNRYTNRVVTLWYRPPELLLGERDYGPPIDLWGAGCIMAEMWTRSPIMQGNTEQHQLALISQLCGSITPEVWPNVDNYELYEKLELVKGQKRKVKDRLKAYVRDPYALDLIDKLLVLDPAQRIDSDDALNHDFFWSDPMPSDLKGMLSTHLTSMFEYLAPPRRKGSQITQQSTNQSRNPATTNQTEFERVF
T2 sequence (O60563 whole entry partner): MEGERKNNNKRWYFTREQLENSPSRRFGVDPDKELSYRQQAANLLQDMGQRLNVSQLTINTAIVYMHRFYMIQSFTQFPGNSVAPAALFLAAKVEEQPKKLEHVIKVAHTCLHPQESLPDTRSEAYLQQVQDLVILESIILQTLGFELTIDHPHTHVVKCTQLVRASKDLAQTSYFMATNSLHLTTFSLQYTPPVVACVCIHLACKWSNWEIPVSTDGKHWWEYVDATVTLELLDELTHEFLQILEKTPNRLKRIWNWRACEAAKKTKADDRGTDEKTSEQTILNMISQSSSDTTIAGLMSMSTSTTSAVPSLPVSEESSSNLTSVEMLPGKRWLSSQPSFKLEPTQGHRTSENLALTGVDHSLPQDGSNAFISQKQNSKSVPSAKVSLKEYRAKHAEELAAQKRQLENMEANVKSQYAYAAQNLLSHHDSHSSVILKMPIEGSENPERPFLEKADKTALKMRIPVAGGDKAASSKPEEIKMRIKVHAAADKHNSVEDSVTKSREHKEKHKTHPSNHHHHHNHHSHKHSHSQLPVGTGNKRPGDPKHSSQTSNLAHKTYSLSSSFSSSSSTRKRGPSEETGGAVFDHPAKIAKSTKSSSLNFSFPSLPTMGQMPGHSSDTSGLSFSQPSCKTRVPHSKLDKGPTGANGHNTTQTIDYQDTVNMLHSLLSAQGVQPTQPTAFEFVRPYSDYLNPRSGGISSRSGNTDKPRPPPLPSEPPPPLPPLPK
T1 sequence (P06493 whole entry): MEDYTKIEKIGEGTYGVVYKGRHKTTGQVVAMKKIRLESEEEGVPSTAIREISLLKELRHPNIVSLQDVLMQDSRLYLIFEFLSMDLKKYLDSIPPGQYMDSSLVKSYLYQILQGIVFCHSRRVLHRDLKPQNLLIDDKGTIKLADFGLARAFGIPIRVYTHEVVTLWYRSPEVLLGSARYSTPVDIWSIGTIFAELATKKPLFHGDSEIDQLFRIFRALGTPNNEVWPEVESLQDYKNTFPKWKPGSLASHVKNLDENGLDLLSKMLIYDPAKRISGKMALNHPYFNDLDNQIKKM
T1 sequence (P14635 whole entry partner): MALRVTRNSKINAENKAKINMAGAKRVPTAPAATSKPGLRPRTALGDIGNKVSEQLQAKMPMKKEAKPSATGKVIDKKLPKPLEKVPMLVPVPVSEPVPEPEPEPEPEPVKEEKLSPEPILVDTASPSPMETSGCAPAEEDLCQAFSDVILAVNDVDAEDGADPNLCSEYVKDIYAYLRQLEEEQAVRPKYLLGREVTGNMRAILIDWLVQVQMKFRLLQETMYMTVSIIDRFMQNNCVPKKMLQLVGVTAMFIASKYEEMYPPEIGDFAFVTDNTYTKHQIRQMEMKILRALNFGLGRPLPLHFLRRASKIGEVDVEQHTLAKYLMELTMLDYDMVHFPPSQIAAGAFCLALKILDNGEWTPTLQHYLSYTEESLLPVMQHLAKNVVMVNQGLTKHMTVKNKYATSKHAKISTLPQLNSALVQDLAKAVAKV
T4 sequence (P50613 whole entry): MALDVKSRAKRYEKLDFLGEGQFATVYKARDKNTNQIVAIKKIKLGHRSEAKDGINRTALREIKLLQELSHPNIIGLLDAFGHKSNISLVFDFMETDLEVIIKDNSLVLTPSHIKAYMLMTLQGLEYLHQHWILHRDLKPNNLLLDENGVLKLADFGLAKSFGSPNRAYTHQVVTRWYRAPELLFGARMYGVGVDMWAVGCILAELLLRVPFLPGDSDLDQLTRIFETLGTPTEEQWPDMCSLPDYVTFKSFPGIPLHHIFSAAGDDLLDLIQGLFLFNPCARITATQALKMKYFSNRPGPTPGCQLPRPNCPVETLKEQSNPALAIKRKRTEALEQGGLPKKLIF
T4 sequence (P51946 whole entry partner): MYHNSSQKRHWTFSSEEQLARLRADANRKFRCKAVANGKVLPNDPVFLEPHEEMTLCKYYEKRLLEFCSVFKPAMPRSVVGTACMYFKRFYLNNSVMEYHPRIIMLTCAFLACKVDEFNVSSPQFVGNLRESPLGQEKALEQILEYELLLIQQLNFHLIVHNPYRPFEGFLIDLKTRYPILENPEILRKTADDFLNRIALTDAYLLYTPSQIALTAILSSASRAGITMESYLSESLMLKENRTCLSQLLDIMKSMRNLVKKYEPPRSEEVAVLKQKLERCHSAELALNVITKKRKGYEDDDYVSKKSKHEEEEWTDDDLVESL
T4 sequence (P51948 whole entry partner): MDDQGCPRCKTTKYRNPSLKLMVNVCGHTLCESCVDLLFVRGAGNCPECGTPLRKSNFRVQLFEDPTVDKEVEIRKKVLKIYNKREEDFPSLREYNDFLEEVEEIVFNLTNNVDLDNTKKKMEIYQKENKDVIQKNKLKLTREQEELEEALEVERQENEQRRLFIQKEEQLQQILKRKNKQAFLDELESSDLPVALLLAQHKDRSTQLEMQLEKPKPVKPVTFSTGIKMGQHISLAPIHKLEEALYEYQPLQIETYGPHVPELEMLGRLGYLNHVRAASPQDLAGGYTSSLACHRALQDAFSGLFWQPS
Chain of CDK5 (Q00535 whole entry, species assumed): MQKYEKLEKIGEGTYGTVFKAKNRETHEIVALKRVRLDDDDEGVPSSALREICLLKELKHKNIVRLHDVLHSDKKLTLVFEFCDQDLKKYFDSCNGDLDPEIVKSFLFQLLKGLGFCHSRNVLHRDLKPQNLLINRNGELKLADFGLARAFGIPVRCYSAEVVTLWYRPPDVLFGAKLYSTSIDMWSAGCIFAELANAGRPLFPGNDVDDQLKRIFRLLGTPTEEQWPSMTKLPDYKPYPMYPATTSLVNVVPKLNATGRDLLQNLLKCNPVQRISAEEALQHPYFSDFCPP
Chain of CDK5 (Q15078 whole entry partner, species assumed): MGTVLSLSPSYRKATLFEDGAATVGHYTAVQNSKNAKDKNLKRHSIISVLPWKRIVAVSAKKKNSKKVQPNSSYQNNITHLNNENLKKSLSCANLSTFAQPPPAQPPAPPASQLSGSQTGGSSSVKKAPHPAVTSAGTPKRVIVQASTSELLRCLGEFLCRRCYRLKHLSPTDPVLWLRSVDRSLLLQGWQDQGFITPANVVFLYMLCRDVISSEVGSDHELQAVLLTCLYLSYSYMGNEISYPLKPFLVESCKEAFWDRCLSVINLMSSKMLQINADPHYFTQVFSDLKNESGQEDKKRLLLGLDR

Row | SMILES | IC50 (CDK1/cyclinB) [µM] | IC50 (CDK5) [µM] | IC50 [1] [µM] | IC50 (CDK4) [µM] | IC50 (CDK9/cyclinT1) [µM] | IC50 (CDK2/cyclinA) [µM] | IC50 (CDK7/cyclinH/MAT1) [µM]
1 | CC(=O)NCCCNc1ncccc1-c1ccnc(Nc2cccc(Cl)c2)n1 [Compound 65, N-(3-{3-[2-(3-Chloro-phenylamino)-pyrimidin-4-yl]-pyridin-2-ylamino}-propyl)-acetamide] | < 5 | < 5 | < 5 | 15 to 50 | < 5 | < 5 | 
2 | CC(=O)NCCCNc1nccc(-c2ccnc(Nc3cccc(Cl)c3)n2)c1C [Compound 6, N-(3-{4-[2-(3-Chloro-phenylamino)-pyrimidin-4-yl]-3-methyl-pyridin-2-ylamino}-propyl)-acetamide] | 5 to 15 |  | 5 to 15 | 5 to 15 | < 5 | < 5 | < 5
3 | CC(C)(CN)CNc1ncccc1-c1ccnc(Nc2cccc(Cl)c2)n1 [Compound 61, N-{3-[2-(3-Chloro-phenylamino)-pyrimidin-4-yl]-pyridin-2-yl}-2,2-dimethyl-propane-1,3-diamine] | < 5 | 15 to 50 | < 5 | < 5 | < 5 | < 5 | < 5
4 | CS(=O)(=O)c1cccc(Nc2nccc(-c3cccnc3NCCCN)n2)c1 [Compound 58, N-{3-[2-(3-Methanesulfonyl-phenylamino)-pyrimidin-4-yl]-pyridin-2-yl}-propane-1,3-diamine] | < 5 | < 5 | < 5 | < 5 | < 5 | < 5 | 
5 | NCCCNc1ncccc1-c1ccnc(Nc2cccc(S(N)(=O)=O)c2)n1 [Compound 59, 3-{4-[2-(3-Amino-propylamino)-pyridin-3-yl]-pyrimidin-2-ylamino}-benzenesulfonamide] | < 5 | < 5 | 15 to 50 | 5 to 15 | < 5 | < 5 | 
6 | COc1cnccc1-c1ccnc(Nc2cccc(Cl)c2)n1 [Compound 45, (3-Chloro-phenyl)-[4-(3-methoxy-pyridin-4-yl)-pyrimidin-2-yl]-amine] | < 5 | < 5 | < 5 | 5 to 15 | < 5 | < 5 | > 50
7 | CS(=O)(=O)NCCCNc1ncccc1-c1ccnc(Nc2cccc(Cl)c2)n1 [Compound 72, N-(3-{3-[2-(3-Chloro-phenylamino)-pyrimidin-4-yl]-pyridin-2-ylamino}-propyl)-methanesulfonamide] | < 5 | < 5 | < 5 | 15 to 50 | < 5 | < 5 | 
8 | COc1cnccc1-c1ccnc(Nc2cccc(S(C)(=O)=O)c2)n1 [Compound 46, (3-Methanesulfonyl-phenyl)-[4-(3-methoxy-pyridin-4-yl)-pyrimidin-2-yl]-amine] | < 5 | < 5 | < 5 | 5 to 15 | < 5 | < 5 | < 5
9 | CC(=O)NCCCNc1nccc(-c2ccnc(Nc3cccc([N+](=O)[O-])c3)n2)c1C [Compound 25, N-(3-{3-Methyl-4-[2-(3-nitro-phenylamino)-pyrimidin-4-yl]-pyridin-2-ylamino}-propyl)-acetamide] | < 5 | < 5 | < 5 | 5 to 15 | < 5 | < 5 | < 5
10 | CC(=O)NCCCNc1cc(-c2nc(Nc3cccc(Cl)c3)ncc2C)ccn1 [Compound 32, N-(3-{4-[2-(3-Chloro-phenylamino)-5-methyl-pyrimidin-4-yl]-pyridin-2-ylamino}-propyl)-acetamide] | < 5 | < 5 | < 5 | 15 to 50 | < 5 | < 5 | < 5
11 | Cc1c(-c2ccnc(Nc3cccc(Cl)c3)n2)ccnc1NCCCn1ccnc1 [Compound 23, (3-Chloro-phenyl)-{4-[2-(3-imidazol-1-yl-propylamino)-3-methyl-pyridin-4-yl]-pyrimidin-2-yl}-amine] | 5 to 15 | < 5 | 5 to 15 | 15 to 50 | < 5 | < 5 | 

Continued, values first:

Row | IC50 (CDK1/cyclinB) [µM] | IC50 (CDK5) [µM] | IC50 [1] [µM] | IC50 (CDK4) [µM] | IC50 (CDK9/cyclinT1) [µM] | IC50 (CDK2/cyclinA) [µM] | IC50 (CDK7/cyclinH/MAT1) [µM] | SMILES
12 | < 5 | 5 to 15 | > 50 | 15 to 50 | < 5 | < 5 | > 50 | COc1ccc(-c2ccnc(Nc3cccc(S(C)(=O)=O)c3)n2)c(OC)n1 [Compound 119, [4-(2,6-Dimethoxy-pyridin-3-yl)-pyrimidin-2-yl]-(3-methanesulfonyl-phenyl)-amine]
13 | < 5 | < 5 | < 5 | 15 to 50 | < 5 | < 5 |  | COc1ncccc1-c1ccnc(Nc2cccc(S(C)(=O)=O)c2)n1 [Compound 93, (3-Methanesulfonyl-phenyl)-[4-(2-methoxy-pyridin-3-yl)-pyrimidin-2-yl]-amine]
14 | < 5 | < 5 | < 5 | 15 to 50 | < 5 | < 5 | < 5 | OCCCNc1ncccc1-c1ccnc(Nc2cccc(Cl)c2)n1 [Compound 74, 3-{3-[2-(3-Chloro-phenylamino)-pyrimidin-4-yl]-pyridin-2-ylamino}-propan-1-ol]
15 | < 5 | < 5 | < 5 | 5 to 15 | < 5 | < 5 | < 5 | Clc1cccc(Nc2nccc(-c3cccnc3NCCCn3ccnc3)n2)c1 [Compound 80, (3-Chloro-phenyl)-{4-[2-(3-imidazol-1-yl-propylamino)-pyridin-3-yl]-pyrimidin-2-yl}-amine]
16 | < 5 | < 5 | < 5 | < 5 | < 5 | < 5 | 5 to 15 | COc1ncccc1-c1ccnc(Nc2cccc(S(N)(=O)=O)c2)n1 [Compound 99, 3-[4-(2-Methoxy-pyridin-3-yl)-pyrimidin-2-ylamino]-benzenesulfonamide]
17 | < 5 | < 5 | < 5 | < 5 | < 5 | < 5 |  | NCCCCNc1ncccc1-c1ccnc(Nc2cccc(Cl)c2)n1 [Compound 84, N-{3-[2-(3-Chloro-phenylamino)-pyrimidin-4-yl]-pyridin-2-yl}-butane-1,4-diamine]
18 | < 5 | < 5 | > 50 | 15 to 50 | < 5 | < 5 | > 50 | COc1ncccc1-c1ccnc(Nc2cccc(C#N)c2)n1 [Compound 91, 3-[4-(2-Methoxy-pyridin-3-yl)-pyrimidin-2-ylamino]-benzonitrile]
19 | < 5 | 5 to 15 | 5 to 15 | 15 to 50 | < 5 | < 5 |  | CC(=O)NCC(C)(C)CNc1ncccc1-c1ccnc(Nc2cccc(Cl)c2)n1 [Compound 73, N-(3-{3-[2-(3-Chloro-phenylamino)-pyrimidin-4-yl]-pyridin-2-ylamino}-2,2-dimethyl-propyl)-acetamide]
